Measured values from the supplement of paper PMC6045584.
± gives the standard deviation of the averaged measurements.

Tests used:
[1] = compound: C=CC(=O)Nc1cc2c(Nc3ccc(F)c(Cl)c3)ncnc2cc1OCCCN1CCOCC1 [CANERTINIB]; assay: surviving fraction relative to DMSO-only wells; higher = less growth inhibition; conditions: exposure time: 5 days
How it was run: (§1)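 Viability was determined by CellTiter-Glo luminescence, expressed as surviving fraction normalised to the median of DMSO-only wells. The cells were log-phase tumour cell lines seeded at 250–500 per well in 384-well plates and, after 24 hours, exposed continuously for five days to inhibitors at 0.5, 1, 5, 10, 50, 100, 500 and 1000 nM. Three screens per line were run, keeping only lines with replicate Pearson r >0.7 and median Z' >0.3.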

[2] = compound: CC[C@@H]1C(=O)N(C)c2cnc(Nc3ccc(C(=O)NC4CCN(C)CC4)cc3OC)nc2N1C1CCCC1 [BI-2536]; assay: as above; conditions: exposure time: 5 days
How it was run: as §1

Test System	surviving fraction ([1]; 0.5 nM)	surviving fraction ([1]; 1 nM)	surviving fraction ([1]; 5 nM)	surviving fraction ([1]; 10 nM)	surviving fraction ([1]; 50 nM)	surviving fraction ([1]; 100 nM)	surviving fraction ([1]; 500 nM)	surviving fraction ([1]; 1000 nM)	surviving fraction ([2]; 0.5 nM)	surviving fraction ([2]; 1 nM)	surviving fraction ([2]; 5 nM)	surviving fraction ([2]; 10 nM)	surviving fraction ([2]; 50 nM)	surviving fraction ([2]; 100 nM)	surviving fraction ([2]; 500 nM)	surviving fraction ([2]; 1000 nM)
22RV1 PROSTATE	0.981 ± 0.038	0.913 ± 0.091	0.985 ± 0.033	1.08 ± 0.25	1.05 ± 0.24	1.01 ± 0.11	1.12 ± 0.22	0.905 ± 0.14	1.01 ± 0.1	0.973 ± 0.029	0.1 ± 0.016	0.085 ± 0.012	0.159 ± 0.0085	0.221 ± 0.012	0.216 ± 0.013	0.213 ± 0.014
93VU HEADNECK	0.784 ± 0.029	0.787 ± 0.065	0.86 ± 0.034	0.698 ± 0.042	1.07 ± 0.053	0.738 ± 0.062	0.63 ± 0.02	0.312 ± 0.044	1.11 ± 0.12	1.05 ± 0.06	0.507 ± 0.077	0.27 ± 0.012	0.258 ± 0.0056	0.333 ± 0.056	0.205 ± 0.023	0.123 ± 0.0066
143B BONE	1.05 ± 0.044	1.04 ± 0.057	1.05 ± 0.038	1.06 ± 0.061	1.08 ± 0.047	1.07 ± 0.039	1.04 ± 0.067	0.984 ± 0.073	1.01 ± 0.023	0.954 ± 0.0071	0.117 ± 0.013	0.0745 ± 0.005	0.082 ± 0.0042	0.114 ± 0.013	0.254 ± 0.0014	0.235 ± 0.025
A549 LUNG	0.915 ± 0.018	0.909 ± 0.018	0.93 ± 0.014	0.873 ± 0.01	0.955 ± 0.046	0.965 ± 0.026	0.9707 ± 0.0042	0.948 ± 0.05	1.02 ± 0.056	1 ± 0.034	0.48 ± 0.016	0.28 ± 0.0067	0.133 ± 0.0046	0.0943 ± 0.0074	0.0457 ± 0.0071	0.039 ± 0.003
ASKA SYNOVIAL	0.958 ± 0.03	0.93 ± 0.014	1.04 ± 0.024	0.917 ± 0.062	1.16 ± 0.077	1.09 ± 0.059	0.933 ± 0.1	0.721 ± 0.047	0.962 ± 0.057	0.919 ± 0.066	0.228 ± 0.012	0.231 ± 0.0032	0.256 ± 0.012	0.219 ± 0.012	0.185 ± 0.0081	0.238 ± 0.011
BT20 BREAST	0.691 ± 0.0098	0.712 ± 0.017	0.654 ± 0.075	0.609 ± 0.058	0.908 ± 0.035	0.899 ± 0.084	0.82 ± 0.057	0.824 ± 0.069	1.01 ± 0.19	0.758 ± 0.17	0.0813 ± 0.018	0.0613 ± 0.031	0.0983 ± 0.025	0.109 ± 0.031	0.135 ± 0.056	0.154 ± 0.052
BT549 BREAST	0.752 ± 0.037	0.886 ± 0.18	0.832 ± 0.08	0.808 ± 0.042	0.937 ± 0.18	1.08 ± 0.052	0.811 ± 0.072	0.47 ± 0.058	0.905 ± 0.14	0.923 ± 0.052	0.229 ± 0.021	0.132 ± 0.038	0.0863 ± 0.0081	0.0867 ± 0.011	0.0667 ± 0.011	0.0373 ± 0.0093
CAL51 BREAST	0.937 ± 0.078	0.92 ± 0.061	0.983 ± 0.053	0.976 ± 0.018	0.974 ± 0.038	1.05 ± 0.083	0.87 ± 0.014	0.481 ± 0.015	0.966 ± 0.057	0.87 ± 0.062	0.0793 ± 0.0041	0.0425 ± 0.0026	0.0333 ± 0.0013	0.0258 ± 0.0033	0.0175 ± 0.00087	0.0207 ± 0.00076
CAL72 BONE	0.982 ± 0.056	0.989 ± 0.067	0.979 ± 0.058	0.969 ± 0.052	1.02 ± 0.2	1.11 ± 0.037	1.03 ± 0.1	1.08 ± 0.053	1 ± 0.019	0.742 ± 0.12	0.2 ± 0.021	0.147 ± 0.033	0.12 ± 0.026	0.0987 ± 0.015	0.104 ± 0.019	0.0927 ± 0.009
CAL120 BREAST	0.903 ± 0.055	0.91 ± 0.063	0.91 ± 0.08	0.902 ± 0.036	0.921 ± 0.087	0.928 ± 0.046	0.795 ± 0.092	0.597 ± 0.021	0.941 ± 0.025	0.431 ± 0.034	0.176 ± 0.0061	0.151 ± 0.013	0.126 ± 0.01	0.113 ± 0.0079	0.0725 ± 0.0027	0.0657 ± 0.0062
CASKI CERVIX	0.83 ± 0.027	0.8 ± 0.042	0.644 ± 0.052	0.704 ± 0.042	0.555 ± 0.037	0.516 ± 0.054	0.157 ± 0.018	0.151 ± 0.022	0.739 ± 0.024	0.427 ± 0.068	0.0607 ± 0.011	0.0583 ± 0.0064	0.0967 ± 0.015	0.075	0.0153 ± 0.0021	0.0183 ± 0.00058
CHLA90 AUTONOMIC GANGLIA	0.869 ± 0.021	0.876 ± 0.083	0.744 ± 0.072	0.704 ± 0.03	0.812 ± 0.08	0.761 ± 0.057	0.684 ± 0.045	0.643 ± 0.062	1.07 ± 0.045	0.978 ± 0.062	0.408 ± 0.032	0.203 ± 0.01	0.167 ± 0.027	0.135 ± 0.015	0.132 ± 0.0078	0.0863 ± 0.0025
CME SYNOVIAL	0.93 ± 0.083	0.969 ± 0.098	0.918 ± 0.065	0.888 ± 0.087	1.18 ± 0.034	1.2 ± 0.11	1.05 ± 0.033	0.876 ± 0.11	1.02 ± 0.077	0.988 ± 0.11	0.683 ± 0.18	0.378 ± 0.031	0.278 ± 0.023	0.237 ± 0.01	0.259 ± 0.004	0.279 ± 0.011
COLO320DM LARGE INTESTINE	1.14 ± 0.076	1.15 ± 0.042	1.04 ± 0.062	1.05 ± 0.06	1.11 ± 0.084	1.04 ± 0.047	0.893 ± 0.032	0.66 ± 0.018	1.17 ± 0.018	1.08 ± 0.015	1.09 ± 0.051	0.836 ± 0.034	0.191 ± 0.019	0.0987 ± 0.0025	0.105 ± 0.011	0.109 ± 0.0025
DU4475 BREAST	0.819 ± 0.11	0.797 ± 0.088	0.782 ± 0.099	0.742 ± 0.15	0.976 ± 0.12	0.919 ± 0.045	0.79 ± 0.18	0.596 ± 0.13	0.997 ± 0.25	1.04 ± 0.051	0.536 ± 0.15	0.233 ± 0.047	0.0763 ± 0.027	0.057 ± 0.015	0.031 ± 0.0053	0.027 ± 0.002
G292 BONE	0.914 ± 0.061	0.949 ± 0.028	0.966 ± 0.055	0.957 ± 0.019	0.955 ± 0.054	0.997 ± 0.073	0.876 ± 0.046	0.677 ± 0.051	0.9403 ± 0.0023	0.659 ± 0.042	0.254 ± 0.012	0.23 ± 0.013	0.161 ± 0.011	0.128 ± 0.0057	0.0832 ± 0.0094	0.0727 ± 0.0063
H23 LUNG	0.908 ± 0.038	0.86 ± 0.051	0.742 ± 0.031	0.553 ± 0.032	0.403 ± 0.035	0.3637 ± 0.0035	0.29 ± 0.011	0.252 ± 0.014	1.09 ± 0.05	1.05 ± 0.048	0.991 ± 0.065	0.446 ± 0.016	0.272 ± 0.015	0.213 ± 0.015	0.16 ± 0.014	0.142 ± 0.0076
HCC38 BREAST	1.01 ± 0.11	1.07 ± 0.18	1.08 ± 0.24	1.05 ± 0.082	1.19 ± 0.17	1.18 ± 0.12	0.948 ± 0.1	0.864 ± 0.16	1.08 ± 0.078	1.15 ± 0.18	0.289 ± 0.021	0.247 ± 0.038	0.219 ± 0.025	0.254 ± 0.017	0.191 ± 0.019	0.115 ± 0.024
HCC70 BREAST	0.991 ± 0.14	1.088 ± 0.0046	1.02 ± 0.078	0.96 ± 0.019	0.911 ± 0.047	0.893 ± 0.017	0.707 ± 0.0092	0.666 ± 0.068	1.08 ± 0.026	0.933 ± 0.12	0.57 ± 0.047	0.35 ± 0.053	0.623 ± 0.041	0.795 ± 0.043	0.593 ± 0.042	0.391 ± 0.045
HCC78 LUNG	0.848 ± 0.35	0.812 ± 0.13	0.946 ± 0.086	0.983 ± 0.23	0.638 ± 0.043	0.775 ± 0.084	0.532 ± 0.081	0.426 ± 0.18	0.932 ± 0.33	0.781 ± 0.13	0.16 ± 0.03	0.091 ± 0.031	0.0883 ± 0.011	0.156 ± 0.023	0.112 ± 0.021	0.0973 ± 0.01
